Assay results taken from ChEMBL document CHEMBL5385962, “Beyond inhibition against the PD-1/PD-L1 pathway: development of PD-L1 inhibitors targeting internalization and degradation of PD-L1” (RSC Med Chem, 2024).

What was measured:
[1] = molecular target: Programmed cell death 1 ligand 1 (Mus musculus) (UniProt Q9EP73); experiment: Induction of PD-L1 degradation in mouse B16-F10 cells
[2] = molecular target: Programmed cell death 1 ligand 1 (Mus musculus) (UniProt Q9EP73); experiment: Induction of PD-L1 degradation in mouse CT26 cells
[3] = Antitumor activity against humanized mouse MC38-hPD-L1 cells implanted in hPD-1 knockin C57BL/6 mouse assessed as reduction in tumor cell proliferation at 10 mg/kg, ip administered for 7 days starting from day 7 post tumor implantation by flow cytometry analysis relative to control; set-up: scale not given: the % may be the effect or the level left; conditions: time 7 day
B16-F10 = experiment: Antiproliferative activity against mouse B16-F10 cells assessed as reduction in cell viability; type: functional, cell-based
A-375 = experiment: Antiproliferative activity against human A-375 cells assessed as reduction in cell viability; type: functional, cell-based
MC-38 [4] = experiment: Antitumor activity against mouse MC38 cells xenografted in BALB/c nude mouse assessed as inhibition of tumor growth at 200 mg/kg, po BID administered twice daily for 14 days relative to control; type: functional; set-up: scale not given: the % may be the effect or the level left; conditions: time 14 day
MC-38 [5] = experiment: Antitumor activity against mouse MC38 cells xenografted in BALB/c nude mouse assessed as inhibition of tumor growth at 2 mg/kg, po BID administered twice daily for 14 days relative to control; type: functional; set-up: scale not given: the % may be the effect or the level left; conditions: time 14 day
MC-38 [6] = experiment: Antitumor activity against mouse MC38 cells xenografted in BALB/c nude mouse assessed as inhibition of tumor growth at 20 mg/kg, po BID administered twice daily for 14 days relative to control; type: functional; set-up: scale not given: the % may be the effect or the level left; conditions: time 14 day
[7] = molecular target: Programmed cell death protein 1/Programmed cell death 1 ligand 1 (Homo sapiens, UniProt Q9NZQ7); experiment: Inhibition of PD-1/PD-L1 interaction (unknown origin) incubated for 24 hrs by HTRF assay; type: protein-complex assay
BGC-823 = experiment: PD-L1 degradation in human PD-L1 […] BGC-823 cells assessed as PD-L1 degradation rate at 10 to 20 uM incubated for 5 days by flow cytometry relative to control; conditions: dose 10-20 µM, time 5 day

Chain of Programmed cell death protein 1/Programmed cell death 1 ligand 1 (Q15116 whole entry): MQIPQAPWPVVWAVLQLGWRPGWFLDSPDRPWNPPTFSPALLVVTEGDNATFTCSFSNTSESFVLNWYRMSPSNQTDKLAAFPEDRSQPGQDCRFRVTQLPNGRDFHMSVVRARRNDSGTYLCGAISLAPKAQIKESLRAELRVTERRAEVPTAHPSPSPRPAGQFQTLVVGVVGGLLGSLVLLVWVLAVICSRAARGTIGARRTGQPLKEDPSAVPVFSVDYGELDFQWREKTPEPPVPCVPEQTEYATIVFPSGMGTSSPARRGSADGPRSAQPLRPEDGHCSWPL
Chain of Programmed cell death protein 1/Programmed cell death 1 ligand 1 (Q9NZQ7 whole entry): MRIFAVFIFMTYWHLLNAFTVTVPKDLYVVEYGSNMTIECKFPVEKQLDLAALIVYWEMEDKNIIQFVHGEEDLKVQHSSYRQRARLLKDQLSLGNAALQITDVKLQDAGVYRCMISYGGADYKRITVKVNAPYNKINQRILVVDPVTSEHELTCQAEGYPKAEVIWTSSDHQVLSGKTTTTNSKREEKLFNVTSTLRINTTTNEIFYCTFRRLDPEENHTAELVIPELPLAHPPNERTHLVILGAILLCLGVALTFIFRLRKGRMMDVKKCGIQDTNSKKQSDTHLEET

For `Cc1c(COc2cc(OCc3cccc(C#N)c3)c(CN3C[C@H](O)C[C@@H]3C(=O)O)cc2Cl)cccc1-c1ccc2c(c1)OCCO2`, which DC50 [1] is on record?
The DC50 was 390 nM.

And the DC50 [2]?
The DC50 was 350 nM.

Which Activity [3] does the source give for `Cc1c(NC(=O)c2ccc(CNCCO)cn2)cccc1-c1cccc(NC(=O)c2ccc(CNCCO)cn2)c1C` here?
Its Activity is 60.4%.

Which IC50 (B16-F10) does the source give for `COc1cc(OCc2cccc(-c3ccccc3)c2C)cc(OC)c1CNCCNC(=O)c1cn(CCOCCOCCOCCNc2cccc3c2C(=O)N(C2CCC(=O)NC2=O)C3=O)nn1` (stereo not given) here?
The IC50 was 14000 nM.

And the IC50 (A-375)?
Its IC50 is 8070 nM.

Which Activity (MC-38 [4]) does the source give for `Cc1c(Nc2nccc3cc(CN4CC[C@@H](O)C4)cnc23)cccc1-c1cccc(-c2nc3cc(CN4CC[C@@H](C(=O)O)C4)cc(C#N)c3o2)c1C` here?
The Activity was 69%.

And the Activity (MC-38 [5])?
Its Activity is 32%.

What about the Activity (MC-38 [6]) of the same compound?
The Activity was 66%.

For `Cc1c(NC(=O)c2nc3c(n2C)CCN(C[C@H](C)O)C3)cccc1-c1cccc(NC(=O)c2nc3c(n2C)CCN(C)C3)c1Cl`, which IC50 [7] is on record?
The IC50 was < 1 nM.

For `Cc1nc(C)c(C(=O)OCc2ccccc2)c(CC(C)(C)C)c1C(=O)OCc1ccccc1`, which PD-L1 degradation rate (BGC-823) is on record?
The PD-L1 degradation rate was 66.99%.
